# Earlier results as cited in patent US8748570B2, “Insulin analogues” (priority 2010, dated 2014).
# Like-named read-outs stand apart in the source and are kept apart here.
# What was measured:
# IGF-IR = IGF-IR (Homo sapiens, UniProt P08069)
# [1] = test system: cultured human lymphocytes
substance,measurement,setting,value
detemir: long-acting insulin with a fatty acid chain on the ε-amino group of LysB29,in vivo potency,,reduced
"Glargine insulin: long-acting insulin: two arginines added to the B-chain C-terminus, glycine at A21",IGF-IR binding,IGF-IR,enhanced
same,duration of activity,in vivo,24 h
same,peak time of effect,in vivo,no peak effect
"A7, B7-(2,7-diaminosuberoyl]-des-(B26-B30)-insulin B25-amide [dicarba-A7-B7-insulin]",EC50,"isolated rat adipocytes; lipogenesis, read-out: ED50 (the source's name)",4.8 nM
same,relative potency compared to human insulin,isolated rat adipocytes; on a molar basis,0.66%
same,relative potency compared to human insulin,isolated rat adipocytes; on a weight basis,0.72%
same,Relative binding affinity,[1],0.1 % of human insulin
